# “Also recorded” adds a separate entry of the source.
# Assays:
# [1] = test system: serovar L2 of the Chlamydia trachomatis LGV biovar, serovar D of the trachoma biovar, Chlamydia muridarum; assay: Abnormal inclusions in different host cell types, serovars and Chlamydia species; type: cell-based; settings: THP-1, RL95-2, HeLa, C. muridarum, penicillin G at 3 hpi
# Text: In blue in the original figure; Hoechst, in green in the original figure: anti-Chlamydia sp. Image taken at 24 hpi (RL95-2/Chlamydia L2; HeLa/Chlamydia-D; HeLa/C. muridarum) or at 48 hpi (THP-1/Chlamydia-L2; THP-1/Chlamydia-D). Scale: 10 μm.
# In order to examine whether the effects of penicillin G on bacterial infectivity depend on the strain or the serovar, ATCC serovar L2 and C. trachomatis serovar D, graciously provided by Dr. de Barbeyrac (University of Bordeaux II, Bordeaux, France) were used. C. muridarum was obtained from Dr. Roger Rank (University of Arkansas, Little Rock, Ark., USA). The bacteria were propagated as a matter of routine in HeLa cells as described above and stored at −80° C. before use (Scidmore, M. A. Curr Protoc Microbiol Chapter 1: Unit 11A 11, 2005). The number of inclusion forming units (IFU) was determined by immunofluorescence, as described above (Verbeke, P. et al. PLoS Pathog 2:e45, 2006).
# To examine the effects of penicillin G on cell infection with Chlamydia, the host cells were cultivated up to 70% confluence without antibiotics, and then were infected with C. trachomatis strain L2 or D, or with C. muridarum at 1 IFU. The infections were carried out at 37° C. for 90 minutes with centrifugation, followed by a washing of extracellular bacteria. […]
# [2] = test system: Chlamydia trachomatis L2 serovar 16S rRNA; assay: 16S rRNA expression by RT-PCR; type: cell-based; settings: 100 hpi
# Text: HeLa cells were infected with the Chlamydia trachomatis L2 serovar and treated or not treated with penicillin G at 3 hpi. At 100 hpi, the cells were collected and the RNA extracted carefully to avoid DNA contamination. Half of the isolated RNA was used for reverse transcription. The RNA and cDNA were amplified by PCR with primers for 16S (bacterial) and 18S (eukaryotic) rRNA in order to study bacterial activity and to verify cDNA quality and quantity. PCR of the RNA is used to verify the absence of DNA contamination. It also indicates the absence of contaminant in the PCR. […] Roughly 1×10^5 HeLa cells were infected and exposed or not exposed to penicillin G, as described above. At 100 hpi, total RNA were isolated using the RNeasy Plus Mini Kit (Qiagen, Hilden, Germany). The samples were treated with DNase I for 1 hour at 37° C. The enzyme was then denatured at 70° C. for 10 min. The RNA were reverse-transcribed into cDNA using random hexamer primers and AffinityScript Multiple Temperature Reverse Transcriptase (Agilent, Santa Clara, Calif., USA) and by following the manufacturer's instructions for RT-PCR. cDNA and RNA were amplified by PCR with Tag Polymerase (Invitrogen, Carlsbad, Calif., USA) in order to verify the absence of DNA contamination. The primers used to amplify 16S rRNA are: A semi-quantitative analysis of the PCR products was carried out by agarose gel electrophoresis and UV detection.
# Chlamydia muridarum = assay: Murine model of genital infection (hydrosalpinx); type: in vivo, C57B1/6 mice; settings: 5 mg/ml in drinking water for 20 days from day 10, read 60 days later
# Text: The mice were infected by vaginal route with 10^7 IFU of Chlamydia muridarum. […] The antibiotic treatment was stopped after 20 days and the mice were kept isolated for an additional 60 days. The mice were then sacrificed, the appearance of the genital tract analyzed and the presence of hydrosalpinx (arrows) sought.
# C57B1/6 mice were infected with Chlamydia muridarum, a Chlamydia species that infects mice and guinea pigs and is genetically close to Chlamydia trachomatis. Estrous cycles in the mice were initiated by injection of progesterone, and then the mice were infected vaginally after 3 days (10^7 IFU). Ten days after infection, the mice were divided into three groups, a negative control group not receiving any antibiotic, a positive control group receiving doxycycline (5 mg/ml) and a test group receiving penicillin G (5 mg/ml). The duration of the treatment was 20 days; the antibiotics, doxycycline and penicillin G, were added to the mice's drinking water. After treatment, the mice were kept isolated for 60 days in order for persistent bacteria to reinitiate their cycle and for sequelae to develop. The mice were then sacrificed, the appearance of the genital tract analyzed and the presence of hydrosalpinx sought. Various organs were also taken.
# The effects of penicillin G were tested in a murine model of genital infection. […]
compound,measurement,setting,value
"CC1(C)S[C@@H]2[C@H](NC(=O)Cc3ccccc3)C(=O)N2[C@H]1C(=O)O [Penicillin G, benzylpenicillin]","generation of abnormal inclusions in other host cells, serovars, species",[1],"independent of the type of host cell, serovar, biovar or even species of Chlamydia bacterium used; also recorded: exhibiting abnormal inclusions"
same,16S rRNA expression in infected cells,[2],"do not produce bacterial RNA; also recorded: express 18S RNA, but not 16S"
same,appearance of the genital tract / hydrosalpinx,Chlamydia muridarum,normal appearance

# Reference: patent US20130053336A1, “TREATMENT OF CHLAMYDIACEAE INFECTIONS BY MEANS OF BETA-LACTAMS” (priority 2010, published 2013)
